# Assay results published in publication PMC6934184, “Selective DNA-PKcs inhibition extends the therapeutic index of localized radiotherapy and chemotherapy” (The Journal of Clinical Investigation, 2019).
# Molecular target: T1, SIK1 (Homo sapiens, UniProt P57059)
# T1 construct: purchased Thermo Fisher Scientific (Life Technologies) SelectScreen
# Assay: SelectScreen LanthaScreen
# Type: binding
# Conditions: 1 µM
# In short: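 NU5455 was profiled across the SelectScreen Broad panel of kinase activity and binding assays. Z'LYTE reactions such as CSF1R ran at apparent Km ATP, while the Adapta CAMK1 assay used ATP listed as 10. Values are given as percent.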
# T1 sequence (P57059 whole entry): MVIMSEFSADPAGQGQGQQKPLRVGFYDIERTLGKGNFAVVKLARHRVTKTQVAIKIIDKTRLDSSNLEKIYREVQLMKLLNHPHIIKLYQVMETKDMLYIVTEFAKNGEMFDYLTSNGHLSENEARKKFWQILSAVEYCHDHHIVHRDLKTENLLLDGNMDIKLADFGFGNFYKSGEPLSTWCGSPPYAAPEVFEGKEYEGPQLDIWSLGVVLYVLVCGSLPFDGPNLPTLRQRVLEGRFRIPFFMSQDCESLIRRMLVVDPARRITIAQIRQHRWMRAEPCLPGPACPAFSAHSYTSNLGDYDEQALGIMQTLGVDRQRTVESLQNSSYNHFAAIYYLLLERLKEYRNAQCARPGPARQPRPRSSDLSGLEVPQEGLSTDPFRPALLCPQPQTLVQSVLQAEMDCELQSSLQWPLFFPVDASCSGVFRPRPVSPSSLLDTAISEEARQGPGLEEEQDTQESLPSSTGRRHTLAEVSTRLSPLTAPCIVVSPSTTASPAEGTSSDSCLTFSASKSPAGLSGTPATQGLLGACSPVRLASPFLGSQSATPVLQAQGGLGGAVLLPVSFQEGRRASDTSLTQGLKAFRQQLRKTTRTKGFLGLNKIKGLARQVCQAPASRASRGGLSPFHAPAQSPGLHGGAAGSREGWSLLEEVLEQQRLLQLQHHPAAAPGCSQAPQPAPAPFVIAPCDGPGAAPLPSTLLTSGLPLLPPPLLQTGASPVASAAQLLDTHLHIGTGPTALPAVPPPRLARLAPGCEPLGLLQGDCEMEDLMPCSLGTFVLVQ
compound,measurement,value
CN(C(=O)CN1CCOCC1)c1ccc2sc3c(-c4cccc5c(=O)cc(N6CC7CCC(C6)O7)oc45)cccc3c2c1 [NU5455],% displacement,1.3%
